These results are taken from ChEMBL document CHEMBL5291721, “A preclinical secondary pharmacology resource illuminates target-adverse drug reaction associations of marketed drugs” (Nat Commun, 2023).

By AC50 is commonly meant the concentration at which the activity in the assay is half-maximal.

Among the targets are D(1A) dopamine receptor (Homo sapiens, UniProt P21728); Histamine H3 receptor (Homo sapiens, UniProt Q9Y5N1); D(3) dopamine receptor (Homo sapiens, UniProt P35462).
For assay [1], the target named is Sodium-dependent noradrenaline transporter (Homo sapiens, UniProt P23975).
For assay [2], the target named is T1, Prostaglandin G/H synthase 1 (Homo sapiens, UniProt P23219). It counts as functional.
Another assay has as its target Prothrombin (Homo sapiens, UniProt P00734). The class given is functional.
For assay [3], the target named is T2, Alpha-1A adrenergic receptor (Homo sapiens, UniProt P35348).
T2 sequence (P35348 whole entry): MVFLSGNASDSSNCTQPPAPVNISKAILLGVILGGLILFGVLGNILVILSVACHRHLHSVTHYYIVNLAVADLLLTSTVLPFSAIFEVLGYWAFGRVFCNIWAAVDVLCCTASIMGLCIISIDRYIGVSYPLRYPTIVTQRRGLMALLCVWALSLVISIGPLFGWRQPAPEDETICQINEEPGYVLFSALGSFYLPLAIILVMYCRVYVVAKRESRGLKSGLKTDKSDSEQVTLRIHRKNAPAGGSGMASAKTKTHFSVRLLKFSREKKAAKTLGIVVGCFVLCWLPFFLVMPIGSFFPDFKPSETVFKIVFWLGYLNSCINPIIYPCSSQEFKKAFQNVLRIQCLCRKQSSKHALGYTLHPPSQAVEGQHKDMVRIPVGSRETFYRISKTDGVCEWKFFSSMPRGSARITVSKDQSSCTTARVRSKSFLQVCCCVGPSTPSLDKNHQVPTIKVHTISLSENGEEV
It counts as functional, cell-based.

Assay [4] addresses T3, 5-hydroxytryptamine receptor 1A (Homo sapiens, UniProt P08908).
T3 sequence (P08908 whole entry): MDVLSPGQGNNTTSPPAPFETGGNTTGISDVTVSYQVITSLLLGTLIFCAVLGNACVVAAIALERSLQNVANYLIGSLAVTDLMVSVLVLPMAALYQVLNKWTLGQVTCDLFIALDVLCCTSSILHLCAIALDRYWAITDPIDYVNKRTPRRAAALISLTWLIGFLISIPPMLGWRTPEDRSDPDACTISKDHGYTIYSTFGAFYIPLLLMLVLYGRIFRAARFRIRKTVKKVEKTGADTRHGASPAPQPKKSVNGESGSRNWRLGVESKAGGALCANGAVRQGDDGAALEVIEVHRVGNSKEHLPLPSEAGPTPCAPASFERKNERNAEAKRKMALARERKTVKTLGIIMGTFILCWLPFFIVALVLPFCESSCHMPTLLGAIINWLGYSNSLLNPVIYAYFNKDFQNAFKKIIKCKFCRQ

Assay [5] deals with T4, Amine oxidase [flavin-containing] A (Homo sapiens, UniProt P21397).
T4 sequence (P21397 whole entry): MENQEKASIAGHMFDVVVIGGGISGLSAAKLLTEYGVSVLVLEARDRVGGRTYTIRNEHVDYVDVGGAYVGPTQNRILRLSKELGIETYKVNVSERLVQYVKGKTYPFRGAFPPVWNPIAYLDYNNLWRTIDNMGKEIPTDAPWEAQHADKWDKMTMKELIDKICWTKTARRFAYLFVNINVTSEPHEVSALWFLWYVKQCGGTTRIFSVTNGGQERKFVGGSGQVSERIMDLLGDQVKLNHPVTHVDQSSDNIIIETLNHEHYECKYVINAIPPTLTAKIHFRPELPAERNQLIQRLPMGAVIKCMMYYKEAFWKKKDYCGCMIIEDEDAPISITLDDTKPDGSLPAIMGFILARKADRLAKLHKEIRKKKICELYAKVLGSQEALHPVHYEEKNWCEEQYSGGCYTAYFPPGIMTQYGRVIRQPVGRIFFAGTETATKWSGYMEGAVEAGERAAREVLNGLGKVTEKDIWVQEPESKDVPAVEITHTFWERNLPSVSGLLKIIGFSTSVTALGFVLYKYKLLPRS
It counts as functional.

For assay [6], the target named is cGMP-inhibited 3',5'-cyclic phosphodiesterase 3A (Homo sapiens, UniProt Q14432). It counts as functional.
The target in assay [7] is 3',5'-cyclic-AMP phosphodiesterase 4A (Homo sapiens, UniProt P27815). The class given is functional.
The target of assay [8] is T5, Muscarinic acetylcholine receptor M2 (Homo sapiens, UniProt P08172).
T5 sequence (P08172 whole entry): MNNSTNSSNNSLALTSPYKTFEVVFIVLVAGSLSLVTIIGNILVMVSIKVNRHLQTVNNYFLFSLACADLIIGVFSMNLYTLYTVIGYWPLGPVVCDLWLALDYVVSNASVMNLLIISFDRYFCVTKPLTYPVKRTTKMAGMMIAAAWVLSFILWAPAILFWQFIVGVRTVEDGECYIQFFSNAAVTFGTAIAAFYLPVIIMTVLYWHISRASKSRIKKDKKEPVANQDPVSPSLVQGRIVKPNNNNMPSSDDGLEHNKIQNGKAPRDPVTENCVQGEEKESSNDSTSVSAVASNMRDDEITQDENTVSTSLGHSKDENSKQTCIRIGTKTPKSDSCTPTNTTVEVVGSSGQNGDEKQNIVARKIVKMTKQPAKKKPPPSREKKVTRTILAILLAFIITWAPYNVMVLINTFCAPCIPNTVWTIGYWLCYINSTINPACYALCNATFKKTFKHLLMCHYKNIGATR

The next assay addresses Acetylcholinesterase (Homo sapiens, UniProt P22303). The class given is functional.
Assay [9] concerns the target Sodium-dependent dopamine transporter (Homo sapiens, UniProt Q01959).
Assay [10] addresses T1, Prostaglandin G/H synthase 1. It counts as functional. The source holds these as a separate data set.
For a further assay, the target named is T6, Thromboxane A2 receptor (Homo sapiens, UniProt P21731).
T6 sequence (P21731 whole entry): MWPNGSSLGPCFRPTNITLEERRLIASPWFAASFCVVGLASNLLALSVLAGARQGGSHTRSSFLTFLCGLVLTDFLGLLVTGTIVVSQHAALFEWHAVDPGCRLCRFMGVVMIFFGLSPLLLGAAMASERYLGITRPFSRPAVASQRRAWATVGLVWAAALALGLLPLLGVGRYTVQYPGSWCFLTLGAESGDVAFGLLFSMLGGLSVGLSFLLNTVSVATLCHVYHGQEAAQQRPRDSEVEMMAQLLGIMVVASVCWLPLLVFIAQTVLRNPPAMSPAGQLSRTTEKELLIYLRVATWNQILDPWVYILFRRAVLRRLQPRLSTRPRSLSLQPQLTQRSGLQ
The class given is functional, cell-based.
Note: assay procedure not described here.

Chain of Acetylcholinesterase (P22303 whole entry): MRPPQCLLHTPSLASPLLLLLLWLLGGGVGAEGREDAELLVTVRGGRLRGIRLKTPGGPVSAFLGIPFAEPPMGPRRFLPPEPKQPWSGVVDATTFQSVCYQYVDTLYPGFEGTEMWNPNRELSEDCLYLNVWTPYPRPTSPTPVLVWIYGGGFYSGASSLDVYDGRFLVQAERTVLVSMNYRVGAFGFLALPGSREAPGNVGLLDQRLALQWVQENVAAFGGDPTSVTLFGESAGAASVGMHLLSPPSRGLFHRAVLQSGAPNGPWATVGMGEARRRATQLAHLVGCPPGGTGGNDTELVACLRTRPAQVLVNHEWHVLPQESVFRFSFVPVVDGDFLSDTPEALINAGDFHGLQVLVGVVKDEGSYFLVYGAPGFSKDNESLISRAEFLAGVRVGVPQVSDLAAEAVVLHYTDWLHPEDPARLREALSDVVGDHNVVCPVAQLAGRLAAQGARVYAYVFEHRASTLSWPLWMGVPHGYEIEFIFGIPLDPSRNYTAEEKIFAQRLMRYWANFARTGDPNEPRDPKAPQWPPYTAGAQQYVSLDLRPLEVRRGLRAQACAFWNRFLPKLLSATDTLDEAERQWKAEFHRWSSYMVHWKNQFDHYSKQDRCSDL
Chain of Histamine H3 receptor (Q9Y5N1 whole entry): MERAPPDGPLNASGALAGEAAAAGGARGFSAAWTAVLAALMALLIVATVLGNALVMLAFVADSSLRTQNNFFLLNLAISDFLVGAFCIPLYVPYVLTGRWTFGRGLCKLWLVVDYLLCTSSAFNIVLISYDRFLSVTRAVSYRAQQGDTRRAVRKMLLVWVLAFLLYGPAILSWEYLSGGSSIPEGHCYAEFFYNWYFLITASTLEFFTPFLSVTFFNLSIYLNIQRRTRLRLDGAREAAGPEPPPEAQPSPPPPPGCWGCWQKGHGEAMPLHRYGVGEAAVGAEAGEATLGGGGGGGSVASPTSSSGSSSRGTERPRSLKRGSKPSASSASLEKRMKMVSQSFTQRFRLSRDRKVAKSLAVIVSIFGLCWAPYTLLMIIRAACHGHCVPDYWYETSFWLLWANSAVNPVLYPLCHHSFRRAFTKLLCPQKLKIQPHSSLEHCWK
Chain of D(3) dopamine receptor (P35462 whole entry): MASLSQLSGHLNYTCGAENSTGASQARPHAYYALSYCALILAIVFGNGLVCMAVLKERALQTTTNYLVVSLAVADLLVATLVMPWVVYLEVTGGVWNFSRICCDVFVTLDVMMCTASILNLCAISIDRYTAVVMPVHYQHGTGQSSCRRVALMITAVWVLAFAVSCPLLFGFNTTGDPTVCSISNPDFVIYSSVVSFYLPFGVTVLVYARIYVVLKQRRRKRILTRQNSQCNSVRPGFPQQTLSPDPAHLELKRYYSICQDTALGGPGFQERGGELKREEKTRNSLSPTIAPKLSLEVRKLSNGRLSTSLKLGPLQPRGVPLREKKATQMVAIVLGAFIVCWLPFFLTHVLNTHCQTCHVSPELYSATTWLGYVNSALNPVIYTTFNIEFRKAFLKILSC
Chain of Sodium-dependent dopamine transporter (Q01959 whole entry): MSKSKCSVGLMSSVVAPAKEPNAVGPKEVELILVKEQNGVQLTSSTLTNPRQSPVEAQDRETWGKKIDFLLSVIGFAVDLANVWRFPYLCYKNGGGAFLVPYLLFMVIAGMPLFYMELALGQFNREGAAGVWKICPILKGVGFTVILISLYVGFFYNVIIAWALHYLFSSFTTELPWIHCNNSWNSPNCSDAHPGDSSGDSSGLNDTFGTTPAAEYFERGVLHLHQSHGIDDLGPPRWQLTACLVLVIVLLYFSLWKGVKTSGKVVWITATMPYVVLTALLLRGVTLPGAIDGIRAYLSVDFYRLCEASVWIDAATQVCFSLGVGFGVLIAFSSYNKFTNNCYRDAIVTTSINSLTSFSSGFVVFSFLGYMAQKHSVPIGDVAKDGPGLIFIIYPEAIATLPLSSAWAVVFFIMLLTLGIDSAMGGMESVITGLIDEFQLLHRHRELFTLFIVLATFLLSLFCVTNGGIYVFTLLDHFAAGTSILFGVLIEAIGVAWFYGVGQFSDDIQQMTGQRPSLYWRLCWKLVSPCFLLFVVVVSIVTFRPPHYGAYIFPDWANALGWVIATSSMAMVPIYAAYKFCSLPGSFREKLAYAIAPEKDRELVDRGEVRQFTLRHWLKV
Chain of Sodium-dependent noradrenaline transporter (P23975 whole entry): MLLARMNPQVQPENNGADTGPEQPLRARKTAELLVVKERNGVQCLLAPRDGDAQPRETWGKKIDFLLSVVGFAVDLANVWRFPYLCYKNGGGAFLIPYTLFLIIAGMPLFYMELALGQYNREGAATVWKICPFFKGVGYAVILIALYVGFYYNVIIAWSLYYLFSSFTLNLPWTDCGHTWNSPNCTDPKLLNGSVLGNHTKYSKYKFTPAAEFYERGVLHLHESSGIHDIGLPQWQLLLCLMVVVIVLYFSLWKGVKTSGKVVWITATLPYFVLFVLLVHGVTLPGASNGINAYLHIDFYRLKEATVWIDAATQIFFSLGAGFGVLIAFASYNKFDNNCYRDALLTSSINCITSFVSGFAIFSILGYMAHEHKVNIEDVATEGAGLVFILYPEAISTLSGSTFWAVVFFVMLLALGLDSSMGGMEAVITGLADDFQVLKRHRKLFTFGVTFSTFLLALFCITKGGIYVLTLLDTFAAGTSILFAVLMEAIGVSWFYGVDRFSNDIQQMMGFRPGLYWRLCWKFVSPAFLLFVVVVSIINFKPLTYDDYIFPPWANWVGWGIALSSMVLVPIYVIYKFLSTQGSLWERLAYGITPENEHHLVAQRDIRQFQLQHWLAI
T1 sequence (P23219 whole entry): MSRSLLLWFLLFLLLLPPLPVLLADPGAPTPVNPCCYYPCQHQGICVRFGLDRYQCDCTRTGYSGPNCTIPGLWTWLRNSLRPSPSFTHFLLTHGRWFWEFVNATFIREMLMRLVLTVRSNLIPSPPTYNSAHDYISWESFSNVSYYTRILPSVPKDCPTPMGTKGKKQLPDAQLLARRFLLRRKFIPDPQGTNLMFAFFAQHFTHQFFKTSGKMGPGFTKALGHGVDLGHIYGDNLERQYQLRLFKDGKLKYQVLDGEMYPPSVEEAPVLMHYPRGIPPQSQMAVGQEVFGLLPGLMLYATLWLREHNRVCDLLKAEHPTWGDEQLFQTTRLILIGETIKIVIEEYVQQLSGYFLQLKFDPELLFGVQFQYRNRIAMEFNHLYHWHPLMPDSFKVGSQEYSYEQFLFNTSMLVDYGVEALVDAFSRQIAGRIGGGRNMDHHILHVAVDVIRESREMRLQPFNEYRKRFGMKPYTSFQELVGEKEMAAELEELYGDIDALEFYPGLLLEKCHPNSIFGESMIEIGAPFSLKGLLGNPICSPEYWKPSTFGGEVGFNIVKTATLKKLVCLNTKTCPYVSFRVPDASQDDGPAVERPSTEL
Chain of D(1A) dopamine receptor (P21728 whole entry): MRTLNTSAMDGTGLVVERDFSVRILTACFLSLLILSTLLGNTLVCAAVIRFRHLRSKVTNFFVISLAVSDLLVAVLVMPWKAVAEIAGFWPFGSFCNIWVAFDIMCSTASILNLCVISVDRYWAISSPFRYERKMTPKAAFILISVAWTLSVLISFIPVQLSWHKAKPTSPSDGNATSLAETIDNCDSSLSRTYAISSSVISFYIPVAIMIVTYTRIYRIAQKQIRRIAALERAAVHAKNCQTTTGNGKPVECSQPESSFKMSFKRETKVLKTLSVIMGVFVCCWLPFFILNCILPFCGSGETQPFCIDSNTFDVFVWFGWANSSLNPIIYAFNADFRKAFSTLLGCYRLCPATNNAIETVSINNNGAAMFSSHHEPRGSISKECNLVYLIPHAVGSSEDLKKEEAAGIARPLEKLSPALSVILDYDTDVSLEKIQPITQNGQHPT
Chain of cGMP-inhibited 3',5'-cyclic phosphodiesterase 3A (Q14432 whole entry): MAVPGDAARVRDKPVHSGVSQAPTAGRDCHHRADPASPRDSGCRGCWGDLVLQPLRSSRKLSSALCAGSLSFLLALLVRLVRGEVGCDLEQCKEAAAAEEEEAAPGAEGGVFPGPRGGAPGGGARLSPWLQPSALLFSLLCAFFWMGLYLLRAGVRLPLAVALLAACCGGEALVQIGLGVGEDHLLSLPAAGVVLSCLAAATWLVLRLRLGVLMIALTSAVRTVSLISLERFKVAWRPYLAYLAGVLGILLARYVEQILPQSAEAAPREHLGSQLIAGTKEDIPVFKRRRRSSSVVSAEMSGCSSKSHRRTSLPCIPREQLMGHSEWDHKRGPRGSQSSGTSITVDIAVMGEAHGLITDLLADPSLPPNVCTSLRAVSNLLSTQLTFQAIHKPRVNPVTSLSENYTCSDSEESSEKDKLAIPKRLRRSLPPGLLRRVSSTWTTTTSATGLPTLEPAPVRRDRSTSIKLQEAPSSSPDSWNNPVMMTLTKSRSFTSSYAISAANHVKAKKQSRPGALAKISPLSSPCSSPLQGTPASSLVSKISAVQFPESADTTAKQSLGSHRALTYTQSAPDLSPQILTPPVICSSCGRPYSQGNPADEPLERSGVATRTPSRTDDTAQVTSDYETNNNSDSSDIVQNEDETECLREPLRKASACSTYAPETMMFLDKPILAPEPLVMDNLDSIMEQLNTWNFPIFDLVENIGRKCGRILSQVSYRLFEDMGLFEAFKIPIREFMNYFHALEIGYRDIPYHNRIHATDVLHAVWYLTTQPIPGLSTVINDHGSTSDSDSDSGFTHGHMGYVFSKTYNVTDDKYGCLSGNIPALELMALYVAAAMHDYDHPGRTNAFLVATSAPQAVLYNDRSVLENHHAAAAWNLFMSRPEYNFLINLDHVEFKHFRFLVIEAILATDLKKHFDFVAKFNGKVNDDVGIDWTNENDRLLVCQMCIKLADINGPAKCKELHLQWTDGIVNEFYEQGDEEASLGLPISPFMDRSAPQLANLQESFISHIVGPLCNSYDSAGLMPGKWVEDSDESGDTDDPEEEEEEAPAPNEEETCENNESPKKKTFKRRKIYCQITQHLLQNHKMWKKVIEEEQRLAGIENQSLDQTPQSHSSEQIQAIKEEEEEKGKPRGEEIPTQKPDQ

Regarding `N=C(N)N/N=C/c1c(Cl)cccc1Cl` [GUANABENZ], the AC50 in assay [1] was 8.81 µM; in assay [2], greater than 30 µM; at Prothrombin, greater than 30 µM; in assay [3], 0.0423 µM; in [4], 0.604 µM; in [5] it was 3.21 µM. In addition, the AC50 is greater than 30 µM in [6]; greater than 30 µM in assay [7]; 8.03 µM on D(1A) dopamine receptor; greater than 30 µM on Histamine H3 receptor; greater than 30 µM in assay [8]; greater than 30 µM at Acetylcholinesterase. Besides, the AC50 on D(3) dopamine receptor was 10.5 µM; in [9] it was 12.8 µM; in assay [10], greater than 30 µM; on Thromboxane A2 receptor it was 22.2 µM.
For `C[N+](C)(CCCCCC[N+](C)(C)C1c2ccccc2-c2ccccc21)C1c2ccccc2-c2ccccc21` [HEXAFLUORENIUM], the AC50 is 1.44 µM in assay [1]; greater than 30 µM in [2]; greater than 30 µM on Prothrombin; greater than 30 µM in assay [3]; 0.868 µM in [4]; greater than 30 µM in assay [5]. The AC50 was greater than 30 µM in [6]; greater than 30 µM in [7]; 19.3 µM on D(1A) dopamine receptor; 2.72 µM at Histamine H3 receptor; 0.514 µM in assay [8]; 0.171 µM on Acetylcholinesterase. Besides, the AC50 at D(3) dopamine receptor was 0.0671 µM; in assay [9] it was 4.5 µM; in assay [10] it was greater than 30 µM; at Thromboxane A2 receptor it was greater than 30 µM.
On to `CCCCC(CC)CN1CN(CC(CC)CCCC)CC(C)(N)C1` (stereo not drawn) [HEXETIDINE], for which the AC50 in [1] is 7.93 µM; in assay [2], greater than 30 µM; at Prothrombin, greater than 30 µM; in assay [3] it was greater than 30 µM; in [4], 3.44 µM; in assay [5], greater than 30 µM. Further, the AC50 in assay [6] is greater than 30 µM; in [7] it was greater than 30 µM; at D(1A) dopamine receptor, greater than 30 µM; at Histamine H3 receptor it was greater than 10 µM; in assay [8] it was 3.18 µM; at Acetylcholinesterase, greater than 30 µM. In addition, the AC50 was 4.84 µM on D(3) dopamine receptor, 4.6 µM in assay [9], greater than 30 µM in assay [10] and greater than 30 µM on Thromboxane A2 receptor.
Turning to `Cc1cc(=O)oc2cc(O)ccc12` [HYMECROMONE], the AC50 was greater than 30 µM in [1]; greater than 30 µM in assay [2]; greater than 3 µM on Prothrombin; greater than 30 µM in [3]; greater than 30 µM in assay [4]; greater than 30 µM in assay [5]. The AC50 (in assay [6]; in assay [7]; at D(1A) dopamine receptor; at Histamine H3 receptor; in assay [8]; at Acetylcholinesterase) was greater than 30 µM each time. Further, the AC50 (at D(3) dopamine receptor; in assay [9]; in assay [10]; at Thromboxane A2 receptor) was greater than 30 µM in each case.
With `COc1cc(C(C)=O)ccc1OCCCN1CCC(c2noc3cc(F)ccc23)CC1` [ILOPERIDONE], the AC50 in assay [1] is 1.19 µM; in [2], greater than 30 µM; on Prothrombin it was greater than 30 µM; in [3] it was greater than 10 µM; in assay [4], 0.11 µM; in [5], greater than 30 µM. Moreover, the concentration at half-maximal activity (AC50) in assay [6] was greater than 30 µM; in [7], greater than 30 µM; on D(1A) dopamine receptor it was 0.01 µM; at Histamine H3 receptor, greater than 30 µM; in assay [8] it was 2.18 µM; on Acetylcholinesterase it was 15.9 µM. Moreover, the AC50 on D(3) dopamine receptor is 0.0099 µM; in [9] it was 5.94 µM; in assay [10], greater than 30 µM; on Thromboxane A2 receptor, greater than 10 µM.
As to `COc1c2occc2c(OC)c2c(=O)cc(C)oc12` [KHELLIN], the AC50 (in assay [1]; in [2]; at Prothrombin; in assay [3]; in assay [4]; in assay [5]) was greater than 30 µM in each case. For the same molecule, the half-maximal activity concentration (AC50) in assay [6] was greater than 30 µM; in assay [7] it was 2.85 µM; at D(1A) dopamine receptor, greater than 30 µM; at Histamine H3 receptor it was greater than 30 µM; in assay [8], greater than 30 µM; at Acetylcholinesterase it was greater than 30 µM. For the same molecule, the AC50 (at D(3) dopamine receptor; in assay [9]; in assay [10]; at Thromboxane A2 receptor) was greater than 30 µM each time.
In the case of `CC(C)[C@@H]1CC[C@@H](C)C[C@H]1O` [LEVOMENTHOL], the half-maximal activity concentration (AC50) (in assay [1]; in assay [2]; at Prothrombin; in assay [3]; in [4]; in assay [5]) was greater than 30 µM in each case. Also, the concentration at half-maximal activity (AC50) (in [6]; in [7]; on D(1A) dopamine receptor; on Histamine H3 receptor; in assay [8]; at Acetylcholinesterase) was greater than 30 µM throughout. Moreover, the AC50 (on D(3) dopamine receptor; in assay [9]; in [10]; on Thromboxane A2 receptor) was greater than 30 µM each time.
Take `COC(=O)[C@@H](N)Cc1ccc(O)c(O)c1` [MELEVODOPA]: the AC50 (in assay [1]; in [2]; on Prothrombin; in assay [3]; in [4]; in assay [5]) was greater than 30 µM in each case. Moreover, the AC50 (in assay [6]; in [7]; at D(1A) dopamine receptor; at Histamine H3 receptor; in assay [8]; on Acetylcholinesterase) was greater than 30 µM each time. The AC50 (on D(3) dopamine receptor; in assay [9]; in assay [10]; at Thromboxane A2 receptor) was greater than 30 µM each time.
